Read-outs that look alike come from different tables or passages of the source.

The values that follow come from patent US20110268699A1, “METHODS FOR TREATING MULTIPLE SCLEROSIS USING TETRACYCLIC PYRAZINOINDOLES” (BIOVISTA, INC., priority 2008, published 2011).

For data set [1] the following is noted: steady-state, trough sample (pre-dose), on average; cited from earlier work.
The test system of data set [2] is MOG-induced EAE in female C57BL/6J mice. The format is in vivo, mouse.
Protocol: Acute EAE Murine Model. […] The MOG murine model consists of a sensitization period, induced by the single subcutaneous (SC) injection of MOG emulsified in Complete Freund's Adjuvant (CFA) on study days 0 and 6, followed by IP supplemental immunostimulation with Pertussis Toxin (PT) carried out once at the time of EAE induction and once again 48 hours later.
Briefly, the study is performed in female C57BL/6J mice (Harlan Laboratories Israel, Ltd.) as young adults, 8-9 weeks of age at study initiation. animals are acclimatized to laboratory conditions at least 5 days. During acclimation and throughout the entire study duration, animals are housed in groups of 10 mice maximum in polypropylene cages, which are fitted with solid bottoms and filled with wood shavings as bedding material. Animals are provided ad libitum a commercial rodent diet and free access to drinking water, supplied to each cage via polyethylene bottles with stainless steel sipper tubes. Water is monitored periodically. Automatically controlled environmental conditions are set to maintain temperature at 20-24° C. with a relative humidity (RH) of 30-70%, a 12:12 hour light: dark cycle and 15-30 air changes/hr in the study room. Temperature and RH are monitored daily. The light cycle is monitored by the control clock. Weight variation of animals at the time of treatment initiation should not exceed ±20% of the mean weight. At the end of the study, surviving animals are euthanized by CO2 asphyxiation.
Antigen. […] This concentration is appropriate for the selected dose and dose volume of 200 μg MOG in 100 μL PBS.
MOG/CFA Emulsion. Prior to each inoculation carried out on study days 0 and 6, 100 μl of MOG solution (200 μg) is emulsified with 100 μl of CFA suspension (300 μg heat killed Mycobacterium Tuberculosis H37 Ra). […]
Initially, all animals are examined for signs of any neurological responses and symptoms prior to EAE induction (study day 0) and are examined on a daily basis throughout the 35-day observation period. EAE reactions are scored and recorded according to a 0-15 scale Clinical signs Scoring Methods. […]
The test system is the same in data set [3]. Briefly: Histological analysis of spinal cord (H&E) of EAE mice: severity score and white matter damage. The format is in vivo, mouse. The source says:
EXAMPLE. Histological Analysis of mice treated with pirlindole (BVA-201). Briefly, all samples are longitudinal sections of the vertebral column and spinal cord stained with hematoxylin and eosin (H&E). Sample A is the cranial part of the vertebral column and sample B is the caudal part. The modifiers F-focal, MF-multifocal, and D-diffuse are used to describe the distribution of inflammatory cellular infiltration. Diffuse is used when the lesion is continuous (at least on one side) and affects the entire SC. In some cases the lesion affects the entire SC (100%) but its distribution is multifocal because it is not contiguous i.e. there are small unaffected segments on one side, which are affected on the contralateral side. Histology analysis refers to 2 parameters: (a) Severity Score which is referring mainly but not limited to infiltration on inflammatory cells; and (b) White Matter Damage (WMD). Codes: Dist—distribution; GM—gray matter; IC—inflammatory cells; ND—not done; SC—spinal cord; Sev—severity; WM—white matter; WMD—white matter damage; WNL—within normal limits. Severity scores 0—WNL, 1—minimal, 2—mild, 3—moderate, 4—severe. Half grades are also used. Severity refers to the amount of inflammatory infiltration and WMD. If there is a discrepancy in the grade of these 2 changes, then this is noted. The extent of WMD is indicated in percentage referring to the amount of affected spinal cord tissue in the sample. In many cases the damage affected one side (dorsal or ventral) of the SC only. In some cases, when the plane of section is more lateral the WMD affects both sides. The available SC sample is considered 100%. Thus, if in a 5 cm long SC, there are changes in a 0.5 cm long segment, then this was noted as 10% irrespective of whether the damage affected one side or both. Although not reflected in the percentage, the extent of the lesion is taken into consideration in evaluation of the severity. WMD describes a set of changes including vacuolation, gliosis, and presence of myelin debris. […]

With `Clc1ccc2c(c1)N=C(N1CCNCC1)c1ccccc1N2` [Norclozapine], the “Metabolite concentration as share of the clozapine concentration in plasma” value in data set [1] was around 70%.

On to `Cc1ccc2c(c1)c1c3n2CCNC3CCC1` (stereo not shown) [Pirlindole, 2,3,3a,4,5,6-hexahydro-8-methyl-1H-pyrazino[3,2,1-j,k]carbazole], for which the “Activity on EAE clinical score compared to the vehicle-only treatment group (A)” value in data set [2] (group C, 1.0 mg/kg IP once daily, at the end of the study) was “not statistically significant”; in data set [2] (group C, 1.0 mg/kg IP once daily, intermediate time points on days 30, 31, and 32, p<0.05), “statistically significant”; in data set [2] (group E, 10 mg/kg IP once daily from day 0, p<0.01, starting at day 15 and continuing throughout the study (day 23, p<0.05), FIG. 1), “statistically significant”. Further, the “Demyelination / myelin repair compared to the vehicle-only treatment group” value in data set [3] (BVA-201 treatment group, general statement) was “one or more of (a) less demyelination, (b) improved myelin repair, and/or (c) remyelination”. Further, the “Histology mean % of white matter damage (WMD)” value in data set [3] (group F, 30 mg/kg IP, FIG. 5) was “significant protective effect”. Further, the “Histology mean group severity score (inflammatory infiltration) versus vehicle” value in data set [3] (groups C (1 mg/kg) and F (30 mg/kg) IP, FIG. 3) is given as “No difference”.
